Data published in patent publication US20120225135A1 (priority 2010, published 2012).

What was measured:
[1] = system: Cryptosporidium parvum oocysts; settings: in vivo
[2] = Residual ClO2 after contact with effluents or tap water (amperometric titration); type: physicochemical; settings: for Residual ClO2: trickling filters effluents
Confirmed Coliform = test: Disinfection of effluents, confirmed coliforms; type: cell-based; settings: for Confirmed Coliforms: effluents, ClO2 dose 9.86 mg/L, 30 minutes; for Confirmed Coliform per 100 mL: trickling filters effluents
Enterobacter Cloacae = test: Microbiological effectiveness at cold temperatures; type: cell-based
[3] = system: Salmonella choleraesuis, ATCC 10708; type: cell-based; settings: pH 5
[4] = system: Saccharomyces diastaticus (70 percent sporulated); test: Microbiological effectiveness at cold temperatures; type: cell-based
Pediococcus damnosus = test: Microbiological effectiveness at cold temperatures; type: cell-based
biofilm = settings: cited from earlier work

SMILES: [O][Cl+][O-] [Chlorine Dioxide, chlorine dioxide]
- reduction of infectivity for mice [1]: > 3 log 10
- ClO2 residual ([2]; effluent, ClO2 dose 5.2 mg/L, contact time 3½ hrs): 0.4 mg/L as ClO2
- ClO2 residual ([2]; effluent, ClO2 dose 5.2 mg/L, contact time 10 min): 1.9 mg/L as ClO2
- ClO2 residual ([2]; effluent, ClO2 dose 5.2 mg/L, contact time 30 min): 1.4 mg/L as ClO2
- ClO2 residual ([2]; effluent, ClO2 dose 5.2 mg/L, contact time 1 hr): 1.0 mg/L as ClO2
- ClO2 residual ([2]; effluent, ClO2 dose 5.2 mg/L, contact time 2 hrs): 0.8 mg/L as ClO2
- ClO2 residual ([2]; effluent, ClO2 dose 5.2 mg/L, contact time 24 hrs): 0 mg/L as ClO2
- ClO2 residual ([2]; effluents, ClO2 dose 7.84 mg/L, contact time 10 min): 3.0 mg/L as ClO2
- ClO2 residual ([2]; effluents, ClO2 dose 7.84 mg/L, contact time 30 min): 2.6 mg/L as ClO2
- ClO2 residual ([2]; effluents, ClO2 dose 7.84 mg/L, contact time 60 min): 2.1 mg/L as ClO2
- ClO2 residual ([2]; effluents, ClO2 dose 7.84 mg/L, contact time 1.5 hr): 1.9 mg/L as ClO2
- ClO2 residual ([2]; effluents, ClO2 dose 7.84 mg/L, contact time 2.5 hr): 1.5 mg/L as ClO2
- ClO2 residual ([2]; effluents, ClO2 dose 7.84 mg/L, contact time 3.5 hr): 1.0 mg/L as ClO2
- ClO2 residual ([2]; effluents, dose 19.2 mg/L, 20 minutes, pH initial 4, final 3.4): 4.66 mg/L as ClO2
- ClO2 residual ([2]; effluents, dose 19.2 mg/L, 20 minutes, pH initial 5, final 4.6): 4.37 mg/L as ClO2
- ClO2 residual ([2]; effluents, dose 19.2 mg/L, 20 minutes, pH initial 6, final 6.45): 4.95 mg/L as ClO2
- ClO2 residual ([2]; effluents, dose 19.2 mg/L, 20 minutes, pH initial 7.5, final 7.3): 3.84 mg/L as ClO2
- ClO2 residual ([2]; effluents, dose 19.2 mg/L, 20 minutes, pH initial 9, final 8.8): 1.27 mg/L as ClO2
- ClO2 residual ([2]; effluents, dose 19.2 mg/L, 20 minutes, pH initial 10, final 9.9): 0.11 mg/L as ClO2
- ClO2 residual ([2]; effluents, dose 37.5 mg/L, 20 minutes, pH initial 4.0, final 3.5): 25.84 mg/L as ClO2
- ClO2 residual ([2]; effluents, dose 37.5 mg/L, 20 minutes, pH initial 5.0, final 4.95): 26.88 mg/L as ClO2
- ClO2 residual ([2]; effluents, dose 37.5 mg/L, 20 minutes, pH initial 6.0, final 6.05): 24.20 mg/L as ClO2
- ClO2 residual ([2]; effluents, dose 37.5 mg/L, 20 minutes, pH initial 7.5, final 7.3): 25.27 mg/L as ClO2
- ClO2 residual ([2]; effluents, dose 37.5 mg/L, 20 minutes, pH initial 9, final 8.8): 15.13 mg/L as ClO2
- ClO2 residual ([2]; effluents, dose 37.5 mg/L, 20 minutes, pH initial 10, final 9.8): 5.23 mg/L as ClO2
- ClO2 residual ([2]; tap water with ammonium ion, nitrites, nitrates, neutral pH, dose 19.2 mg/L, 10 min): 0 mg/L as ClO2
- ClO2 residual ([2]; tap water with ammonium ion, nitrites, nitrates, neutral pH, dose 19.2 mg/L, 30 min): 0 mg/L as ClO2
- ClO2 residual ([2]; tap water with ammonium ion, nitrites, nitrates, neutral pH, dose 19.2 mg/L, 1 hr): 0.07 mg/L as ClO2
- ClO2 residual ([2]; tap water with ammonium ion, nitrites, nitrates, neutral pH, dose 19.2 mg/L, 3 hrs): 0.03 mg/L as ClO2
- ClO2 residual ([2]; tap water with ammonium ion, nitrites, nitrates, neutral pH, dose 19.2 mg/L, 24 hrs): 0.08 mg/L as ClO2
- Residual ClO2 ([2]; dose 2.7 mg/L, contact time 5 min): 0 mg/L as ClO2
- Residual ClO2 ([2]; dose 2.7 mg/L, contact time 20 min): 0 mg/L as ClO2
- Residual ClO2 ([2]; dose 2.7 mg/L, contact time 35 min): 0 mg/L as ClO2
- Residual ClO2 ([2]; dose 7.8 mg/L, contact time 5 min): 1.28 mg/L as ClO2
- Residual ClO2 ([2]; dose 7.8 mg/L, contact time 20 min): 1.03 mg/L as ClO2
- Residual ClO2 ([2]; dose 7.8 mg/L, contact time 35 min): 0.84 mg/L as ClO2
- Residual ClO2 ([2]; dose 10.8 mg/L, contact time 5 min): 3.10 mg/L as ClO2
- Residual ClO2 ([2]; dose 10.8 mg/L, contact time 20 min): 2.17 mg/L as ClO2
- Residual ClO2 ([2]; dose 10.8 mg/L, contact time 35 min): 2.07 mg/L as ClO2
- Confirmed Coliforms (Confirmed Coliform; pH initial 4.6, final 4.4): 2 MPN per 100 ml
- Confirmed Coliforms (Confirmed Coliform; pH initial 5.5, final 5.6): 2 MPN per 100 ml
- Confirmed Coliforms (Confirmed Coliform; pH initial 6.5, final 6.7): 4.5 MPN per 100 ml
- Confirmed Coliforms (Confirmed Coliform; pH initial 7.5, final 7.6): 17 MPN per 100 ml
- Confirmed Coliforms (Confirmed Coliform; pH initial 8.2, final 8.1): 33 MPN per 100 ml
- Confirmed Coliforms (Confirmed Coliform; pH initial 9.1, final 9.2): 7.9 × 10^2 MPN per 100 ml
- Confirmed Coliforms (Confirmed Coliform; pH initial 10.0, final 10.0): 1.3 × 10^4 MPN per 100 ml
- Confirmed Coliform per 100 mL (Confirmed Coliform; ClO2 dose 2.7 mg/L, contact time 5 min): 1.3 × 10^7 per 100 mL
- Confirmed Coliform per 100 mL (Confirmed Coliform; ClO2 dose 2.7 mg/L, contact time 20 min): 2.4 × 10^7 per 100 mL
- Confirmed Coliform per 100 mL (Confirmed Coliform; ClO2 dose 2.7 mg/L, contact time 35 min): 2.4 × 10^6 per 100 mL
- Confirmed Coliform per 100 mL (Confirmed Coliform; ClO2 dose 5.0 mg/L, contact time 15 min): 2.4 × 10^6 per 100 mL
- Confirmed Coliform per 100 mL (Confirmed Coliform; ClO2 dose 5.0 mg/L, contact time 30 min): 1.1 × 10^2 per 100 mL
- Confirmed Coliform per 100 mL (Confirmed Coliform; ClO2 dose 10.8 mg/L, contact time 5 min): 1.3 × 10^3 per 100 mL
- Confirmed Coliform per 100 mL (Confirmed Coliform; ClO2 dose 10.8 mg/L, contact time 20 min): 14 per 100 mL
- Confirmed Coliform per 100 mL (Confirmed Coliform; ClO2 dose 10.8 mg/L, contact time 35 min): 7.8 per 100 mL
- Deactivation (%) (Enterobacter Cloacae): 99.999%
- reduction in titer [3]: > 6 log 10
- Deactivation (%) [4]: 99.999%
- Deactivation (%) (Pediococcus damnosus): 99.999%
- detachment of biofilms (biofilm): very effective
